# Experimental data from PubChem BioAssay AID1918996 (Molecular Pharmacology Branch, DTP, NCI, 2023).
# pIC50: −log10 of the molar value.
# Test system: 349418-098-R-PDC complex spheroid growth
# Assay: Anticancer human tumor 349418-098-R-PDC patient-derived lung adenocarcinoma cell line growth inhibition [AhR]
# Conditions: for pIC50: curve of first compound; for viability, T/C: stronger effect = lower value
# Summary of the method: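 Agents were dosed in half-log steps down from roughly clinical Cmax, or from 10 microM where Cmax was unknown, alone and with AhR antagonists. Read-out: percent test/control growth of tumor spheroids containing HUVEC and MSC stromal cells.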
# [1] = second compound 0.1 µM, first compound 0.0316 µM
# [2] = second compound 0.1 µM, first compound 0.1 µM
# [3] = second compound 0.1 µM, first compound 0.316 µM
# [4] = second compound 0.1 µM, first compound 1 µM
# [5] = second compound 0.1 µM, first compound 3.16 µM
# [6] = second compound 0.1 µM, first compound 10 µM
# [7] = second compound 0.316 µM, first compound 0.0316 µM
# [8] = second compound 0.316 µM, first compound 0.1 µM
# [9] = second compound 0.316 µM, first compound 0.316 µM
# [10] = second compound 0.316 µM, first compound 1 µM
# [11] = second compound 0.316 µM, first compound 3.16 µM
# [12] = second compound 0.316 µM, first compound 10 µM
# [13] = second compound 1 µM, first compound 0.0316 µM
# [14] = second compound 1 µM, first compound 0.1 µM
# [15] = second compound 1 µM, first compound 0.316 µM
# [16] = second compound 1 µM, first compound 1 µM
# [17] = second compound 1 µM, first compound 3.16 µM
# [18] = second compound 1 µM, first compound 10 µM
# [19] = second compound 3.16 µM, first compound 0.0316 µM
# [20] = second compound 3.16 µM, first compound 0.1 µM
# [21] = second compound 3.16 µM, first compound 0.316 µM
# [22] = second compound 3.16 µM, first compound 1 µM
# [23] = second compound 3.16 µM, first compound 3.16 µM
# [24] = second compound 3.16 µM, first compound 10 µM
# [25] = second compound 10 µM, first compound 0.0316 µM
# [26] = second compound 10 µM, first compound 0.1 µM
# [27] = second compound 10 µM, first compound 0.316 µM
# [28] = second compound 10 µM, first compound 1 µM
# [29] = second compound 10 µM, first compound 3.16 µM
# [30] = second compound 10 µM, first compound 10 µM
# 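Note: spheroids exposed to agents for seven days before luminescence viability read.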
# 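Throughout, for viability, T/C: spheroids also contain HUVEC endothelial cells and human MSC stroma.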
pIC50 (second compound 0.1 µM),pIC50 (second compound 0.316 µM),pIC50 (second compound 1 µM),pIC50 (second compound 3.16 µM),pIC50 (second compound 10 µM),SMILES,"viability, T/C [1] [%]","viability, T/C [2] [%]","viability, T/C [3] [%]","viability, T/C [4] [%]","viability, T/C [5] [%]","viability, T/C [6] [%]","viability, T/C [7] [%]","viability, T/C [8] [%]","viability, T/C [9] [%]","viability, T/C [13] [%]","viability, T/C [14] [%]","viability, T/C [19] [%]","viability, T/C [20] [%]","viability, T/C [25] [%]","viability, T/C [26] [%]",other results
5.68,5.70,5.71,5.69,5.99,CC1COCCN1c1cc(C2(S(C)(=N)=O)CC2)nc(-c2ccnc3[nH]ccc23)n1 (stereo not given) + Cc1ccccc1N=Nc1ccc(NC(=O)c2ccnn2C)c(C)c1,87,110,86.5,83.6,31,14.4,87.8,78,78.6,89.2,123,90.8,76.9,69.5,70.1,"viability, T/C [10]: 89.7%; viability, T/C [11]: 27.7%; viability, T/C [12]: 13.4%; viability, T/C [15]: 86.8%; viability, T/C [16]: 66.8%; viability, T/C [17]: 39.9%; viability, T/C [18]: 16%; viability, T/C [21]: 97.9%; viability, T/C [22]: 79.3%; viability, T/C [23]: 31.8%; viability, T/C [24]: 15.3%; viability, T/C [27]: 56.6%; viability, T/C [28]: 55.5%; viability, T/C [29]: 28.9%; viability, T/C [30]: 17.1%"
< 5.00,< 5.00,< 5.00,> 7.50,> 7.50,O=C(c1cc(Cc2n[nH]c(=O)c3ccccc23)ccc1F)N1CCN(C(=O)C2CC2)CC1 + Cc1cncc(-c2nc(NCCc3c[nH]c4ccccc34)c3ncn(C(C)C)c3n2)c1,75.7,91.6,98.3,89.9,75.2,58.8,94.8,102,99.4,81.7,86.7,17.7,19,1.12,1.3,"viability, T/C [10]: 82.3%; viability, T/C [11]: 74.7%; viability, T/C [12]: 64.4%; viability, T/C [15]: 84.1%; viability, T/C [16]: 67.2%; viability, T/C [17]: 75.5%; viability, T/C [18]: 65.1%; viability, T/C [21]: 14.9%; viability, T/C [22]: 12.7%; viability, T/C [23]: 15%; viability, T/C [24]: 13.9%; viability, T/C [27]: 0.99%; viability, T/C [28]: 1.23%; viability, T/C [29]: 1.33%; viability, T/C [30]: 1.37%"
7.82,7.85,7.84,> 9.50,> 9.50,CC[C@@]1(O)C(=O)OCc2c1cc1n(c2=O)Cc2cc3c(CN(C)C)c(O)ccc3nc2-1 + Cc1cncc(-c2nc(NCCc3c[nH]c4ccccc34)c3ncn(C(C)C)c3n2)c1,29.4,6.14,–,–,–,–,23.8,6.37,–,24.5,7.22,10.1,5.91,1.32,1.19,"viability, T/C (second compound 0.1 µM, first compound 0.000316 µM): 102%; viability, T/C (second compound 0.1 µM, first compound 0.001 µM): 93.9%; viability, T/C (second compound 0.1 µM, first compound 0.00316 µM): 91.6%; viability, T/C (second compound 0.1 µM, first compound 0.01 µM): 60.7%; viability, T/C (second compound 0.316 µM, first compound 0.000316 µM): 87.3%; viability, T/C (second compound 0.316 µM, first compound 0.001 µM): 94%; viability, T/C (second compound 0.316 µM, first compound 0.00316 µM): 86.4%; viability, T/C (second compound 0.316 µM, first compound 0.01 µM): 60.3%; viability, T/C (second compound 1 µM, first compound 0.000316 µM): 90.6%; viability, T/C (second compound 1 µM, first compound 0.001 µM): 93.5%; viability, T/C (second compound 1 µM, first compound 0.00316 µM): 84.2%; viability, T/C (second compound 1 µM, first compound 0.01 µM): 62%; viability, T/C (second compound 3.16 µM, first compound 0.000316 µM): 24.8%; viability, T/C (second compound 3.16 µM, first compound 0.001 µM): 19.5%; viability, T/C (second compound 3.16 µM, first compound 0.00316 µM): 21%; viability, T/C (second compound 3.16 µM, first compound 0.01 µM): 14.4%; viability, T/C (second compound 10 µM, first compound 0.000316 µM): 1.41%; viability, T/C (second compound 10 µM, first compound 0.001 µM): 1.47%; viability, T/C (second compound 10 µM, first compound 0.00316 µM): 1.56%; viability, T/C (second compound 10 µM, first compound 0.01 µM): 1.49%"
